Structures are written as SMILES. Entries after “also recorded” stand apart in the source; their conditions may differ.

Holding throughout (type): cell-based, human
Test [1] has as its system iPSC-RPE cells. In words: Immunostaining of iPSC-RPE monolayer (beta catenin, pERM, ZO1, RPE65, p27). To be noted: for p27 staining: nucleus, higher expression suggests cell cycle exit; for Beta catenin staining: treated vs untreated iPSC-RPE cells (untreated: cytoplasm); for RPE65 staining: treated vs untreated iPSC-RPE cells (untreated: low); for RPE maturation: treatment of RPE cells in RPE-MM. As for the experimental part:
(§1) For analysis of the mature RPE cells produced from treatment with PGE2, immunostaining of the RPE monolayer was performed to confirm the hexagonal architecture (FIGS. 4A-4C) of tight junctions by ZO1 staining as well as transmission electron microscopy of the iPSC-RPE cells (FIG. 4D). […] In addition, treatment with IWP2+endo-IWR1 or IWP2 results also results in decreased beta catenin (FIG. 5A) and increased RPE65 (FIG. 5C).

The subject of test [2] is RPE population. As to the kind of experiment: Inclusion of MEK inhibitor in RDM and RPE-MM during RPE differentiation. To be noted: 1 μM in RDM and in RPE-MM (approximately Days 42 through 50). As for the experimental part: With regard to the methods described in Examples 2 and 3, the inclusion of PD0325901 at a concentration of 1 μM in media for certain windows of time beginning on Day 2 post iPSC plating through the end of the differentiation process, including post-MACS culture, may improve both purity of the RPE population (meaning a decrease in contaminating cells) as well as maturity of the resulting RPE population.

Test [3] has as its system iPSC-RPE cells. As to the kind of experiment: Transmission electron microscopy of iPSC-RPE cells. To be noted: treated vs untreated iPSC-RPE cells. The method, then:
as §1

Test [4] relates to iPSC-derived RPE cells. In words: Barrier function: transepithelial electrical potential (TEP) and resistance (TER) of RPE monolayer. As for the experimental part: To measure the barrier function of the RPE cells generated by the present methods, transepithelial electrical potential (TEP) was measured the ion gradient across the monolayer generated by energy-driven ion pumps that regulate passage across the cells, and transepithelial electrical resistance (TER) measures resistance of substances through the paracellular space mainly through the fine structure of the tight junction structure (FIG. 7A).
Functionality of the mature RPE cells treated with IWP2 or endo-IWR1 was also characterized. […] To determine the maturity and functionality of the 50 μM versus 100 μM PGE2 treated cultures, the barrier function in terms of transepithelial electrical resistance (TER) was measured (FIG. 7F) to compare the resistance of substances through the paracellular space as explained in Example 9. To determine the percentage of pure RPE cells obtained after treatment of the iPSC-derived RPE cultures with 50 μM or 100 μM in the RPE-MM+PGE2 medium, flow cytometry purity assay was performed for RPE-specific markers (FIG. 7G) as described in Example 6.

The test system of test [5] is iPSC-derived RPE cells. As to the kind of experiment: Flow cytometry purity assay for RPE-specific markers. The method, then:
The flow cytometry purity assay was performed to determine the percentage of RPE cells obtained by a sorting method of the present disclosure. An aliquot of the cell suspension collected from the MACS assay (2×10^6 cells in a 5 mL FACS tube per sample) was centrifuged at 400×g for 3 min. The cell pellet was resuspended in 1 mL of a stain (e.g., Live-Dead Red stain) and incubated in the dark at room temperature for 15 min. After incubation, 2 mL of wash buffer was added and the cells were centrifuged at 400×g for 3 min to remove any unbound stain. The cell pellet was resuspended in fixation buffer and incubated in the dark at room temperature for 15 min. After incubation, 2 mL of wash buffer were added and the cells were centrifuged at 400×g for 3 min and the supernatant was decanted. The cell pellet was resuspended in 2 mL of wash buffer to make a 1×10^6 cells/mL suspension and 200 μL of the cell suspension was transferred to a FACS tube. To each tube, 2 mL of perm buffer was added and cells were centrifuged at 400×g for 3 min. Primary antibodies for the RPE-specific markers were diluted in perm buffer and 100 μL diluted antibody solution was added to each tube. After incubation overnight at 4° C. in the dark, the cells were washed in 2 mL Perm Buffer two times. Secondary antibody solution was added to each of the tubes and cells were incubated at room temperature in the dark for 1-2 hours. After incubation, the cells were washed twice with Perm Buffer, centrifuged (400×g for 3 min) and resuspended in 100 μL wash buffer for flow cytometry analysis. […]
Functionality of the mature RPE cells treated with IWP2 or endo-IWR1 was also characterized. […] To determine the maturity and functionality of the 50 μM versus 100 μM PGE2 treated cultures, the barrier function in terms of transepithelial electrical resistance (TER) was measured (FIG. 7F) to compare the resistance of substances through the paracellular space as explained in Example 9. […]
(In general: In flow cytometry, cells or beads pass a laser one at a time.)

Setting [6] is: day 75, 100 μM vs 50 μM PGE2, day 54 to day 75.

As to `Cc1ccc2nc(NC(=O)CSc3nc4c(c(=O)n3-c3ccccc3)SCC4)sc2c1` [IWP2, N-(6-Methyl-2-benzothiazolyl)-2-[(3,4,6,7-tetrahydro-4-oxo-3-phenylthieno[3,2-d]pyrimidin-2-yl)thio]-acetamide], in test [1], the p27 staining entry is listed as “higher p27 expression in the nucleus”, the Beta catenin staining entry is listed as “decreased; also recorded: on cell membrane”, the RPE65 staining entry is given as “increased; also recorded: high in the cytoplasm” and the RPE maturation result is recorded as “produces mature RPE cells”.
Take `O=C(NOC[C@H](O)CO)c1ccc(F)c(F)c1Nc1ccc(I)cc1F` [PD 0325901, N-[(2R)-2,3-Dihydroxypropoxy]-3,4-difluoro-2-[(2-fluoro-4-iodophenyl)amino]-benzamide]: the “Purity and maturity of the RPE population” value in test [2] was “improve both purity and maturity”.
Take `[Cl-].[Li+]` [LiCl]: in test [1], the p27 staining result was “weak p27 expression in the nucleus”, the Beta catenin staining entry is listed as “in the nucleus” and the RPE65 staining result was “no staining”.
As to `CCCCC[C@H](O)/C=C/[C@H]1[C@H](O)CC(=O)[C@@H]1C/C=C\CCCC(=O)O` [PGE2, prostaglandin E2], the “Apical processes in transmission electron micrographs” value in test [3] was “more extensive apical processes”. In test [4] (100 μM vs 50 μM PGE2 in RPE-MM+PGE2 medium, Day 54 to Day 75), the “Functional response (TER)” value is listed as “progressive increase”. The “TEP and TER measurements (functionality)” value in test [4] (treated vs untreated RPE cells) is recorded as “increased functionality”. In addition, the ZO1 staining result in test [1] (both untreated and treated cells) was “at the tight junctions in the plasma membrane”. In addition, in test [1], the Beta catenin staining result was “decreased; also recorded: at the membrane”, the RPE65 staining result is “increased; also recorded: high in the cytoplasm” and the RPE maturation result is on record as “produces mature RPE cells”. In addition, the “pERM (Ezrin) staining” value in test [1] (treated vs untreated iPSC-RPE cells (untreated: low in cytoplasm)) is “high in the cytoplasm”. For the same molecule, in test [5] (setting [6]), the “Expression of Best 1 marker (late maturity RPE marker)” value is “much higher”; the “Expression of Pmel17, Tryp1 and Cralbp (RPE-specific markers)” value is “comparable expression”. Besides, the “Purity and maturity of the RPE population” value in test [5] (higher concentration (100 μM vs 50 μM) in RPE-MM+PGE2 medium, TER and flow cytometry) is “promotes both the purity and maturity”.

The values above are taken from patent US12065671B2, “Method for reproducible differentiation of clinical-grade retinal pigment epithelium cells” (The United States of America, as represented by the …, priority 2015, dated 2024).
